This series is described as follows: Pharmacokinetics of GST-HG171 and ritonavir in plasma, alone and co-administered with itraconazole (drug-drug interaction study). Particulars: Day 3, N = 12, median (minimum, maximum).

As for `CC(C)c1nc(CN(C)C(=O)N[C@H](C(=O)N[C@@H](Cc2ccccc2)C[C@H](O)[C@H](Cc2ccccc2)NC(=O)OCc2cncs2)C(C)C)cs1` [Ritonavir, ritonavir], the Tmax is on record as 2.50 (2.0008, 3.0011) h.

The values are drawn from paper PMC13231921 (Antimicrobial Agents and Chemotherapy, 2026).
